{"source": "patent US8357673B2", "about": "“4-arylazo-3,5-diamino-pyrazole compounds and use thereof” (Univerzita Palackeho V Olomouci, priority 2004, dated 2013)", "key": {"p70S6K": {"target": "p70S6K (Homo sapiens, UniProt P23443)", "sequence (P23443 whole entry)": "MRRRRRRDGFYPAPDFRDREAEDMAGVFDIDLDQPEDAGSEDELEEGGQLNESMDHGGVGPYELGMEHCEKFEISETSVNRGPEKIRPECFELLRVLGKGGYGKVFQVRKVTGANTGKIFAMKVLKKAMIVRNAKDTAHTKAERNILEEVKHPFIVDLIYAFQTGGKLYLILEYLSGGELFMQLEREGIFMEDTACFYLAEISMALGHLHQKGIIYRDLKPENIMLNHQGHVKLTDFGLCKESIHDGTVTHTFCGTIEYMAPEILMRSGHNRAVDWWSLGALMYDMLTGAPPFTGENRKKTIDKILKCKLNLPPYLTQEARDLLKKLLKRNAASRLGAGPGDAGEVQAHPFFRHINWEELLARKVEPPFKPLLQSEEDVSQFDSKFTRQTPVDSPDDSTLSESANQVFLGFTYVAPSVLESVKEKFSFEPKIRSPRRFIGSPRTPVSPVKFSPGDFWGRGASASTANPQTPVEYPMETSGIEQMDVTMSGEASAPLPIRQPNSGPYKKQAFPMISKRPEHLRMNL", "test": "Kinase selectivity panel", "type": "biochemical"}, "CK2": {"target": "CK2 (Homo sapiens, UniProt P68400)", "sequence (P68400 whole entry)": "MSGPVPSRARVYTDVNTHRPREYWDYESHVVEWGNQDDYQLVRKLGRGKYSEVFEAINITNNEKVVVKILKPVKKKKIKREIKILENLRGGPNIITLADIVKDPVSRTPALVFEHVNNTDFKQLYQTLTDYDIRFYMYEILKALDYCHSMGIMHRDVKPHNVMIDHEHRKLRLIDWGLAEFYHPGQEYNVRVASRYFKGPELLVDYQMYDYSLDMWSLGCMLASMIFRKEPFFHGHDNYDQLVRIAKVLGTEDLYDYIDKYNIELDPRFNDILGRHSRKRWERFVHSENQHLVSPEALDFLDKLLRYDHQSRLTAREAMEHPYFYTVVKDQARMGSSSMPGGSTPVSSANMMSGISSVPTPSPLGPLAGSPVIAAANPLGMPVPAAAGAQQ", "test": "Kinase selectivity panel", "type": "biochemical", "settings": "in the presence of 10 μM compound"}, "c-Abl": {"target": "c-Abl (Homo sapiens, UniProt P00519)", "sequence (P00519 whole entry)": "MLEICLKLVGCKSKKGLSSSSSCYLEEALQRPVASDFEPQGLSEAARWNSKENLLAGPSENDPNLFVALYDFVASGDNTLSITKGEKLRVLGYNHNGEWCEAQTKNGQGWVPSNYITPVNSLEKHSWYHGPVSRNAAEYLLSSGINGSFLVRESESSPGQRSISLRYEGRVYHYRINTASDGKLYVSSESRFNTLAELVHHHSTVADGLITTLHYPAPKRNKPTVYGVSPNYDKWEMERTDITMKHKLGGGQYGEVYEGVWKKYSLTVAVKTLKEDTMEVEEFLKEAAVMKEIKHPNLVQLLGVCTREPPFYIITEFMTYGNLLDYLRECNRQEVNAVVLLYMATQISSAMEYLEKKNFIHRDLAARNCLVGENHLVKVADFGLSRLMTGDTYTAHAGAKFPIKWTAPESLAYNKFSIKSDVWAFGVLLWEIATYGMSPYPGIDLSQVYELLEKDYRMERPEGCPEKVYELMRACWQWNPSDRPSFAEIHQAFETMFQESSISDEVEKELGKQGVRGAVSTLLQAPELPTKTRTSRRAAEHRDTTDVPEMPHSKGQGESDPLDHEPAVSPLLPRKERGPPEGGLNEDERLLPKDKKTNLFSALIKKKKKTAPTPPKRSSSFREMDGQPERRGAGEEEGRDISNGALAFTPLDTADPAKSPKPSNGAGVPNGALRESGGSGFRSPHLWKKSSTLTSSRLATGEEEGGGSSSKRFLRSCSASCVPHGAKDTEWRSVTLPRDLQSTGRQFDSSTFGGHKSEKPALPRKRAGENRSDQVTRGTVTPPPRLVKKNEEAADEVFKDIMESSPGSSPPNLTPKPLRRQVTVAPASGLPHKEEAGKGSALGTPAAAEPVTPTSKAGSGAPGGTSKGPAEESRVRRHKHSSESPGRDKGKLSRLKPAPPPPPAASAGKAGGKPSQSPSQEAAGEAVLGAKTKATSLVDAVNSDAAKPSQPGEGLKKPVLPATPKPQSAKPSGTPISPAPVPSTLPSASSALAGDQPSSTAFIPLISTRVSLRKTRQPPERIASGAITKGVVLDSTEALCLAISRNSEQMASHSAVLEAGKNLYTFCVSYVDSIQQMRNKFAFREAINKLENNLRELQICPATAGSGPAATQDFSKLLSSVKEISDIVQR", "test": "Kinase selectivity panel", "type": "biochemical", "settings": "in the presence of 10 μM compound"}, "CHK1": {"target": "CHK1 (Homo sapiens, UniProt O14757)", "sequence (O14757 whole entry)": "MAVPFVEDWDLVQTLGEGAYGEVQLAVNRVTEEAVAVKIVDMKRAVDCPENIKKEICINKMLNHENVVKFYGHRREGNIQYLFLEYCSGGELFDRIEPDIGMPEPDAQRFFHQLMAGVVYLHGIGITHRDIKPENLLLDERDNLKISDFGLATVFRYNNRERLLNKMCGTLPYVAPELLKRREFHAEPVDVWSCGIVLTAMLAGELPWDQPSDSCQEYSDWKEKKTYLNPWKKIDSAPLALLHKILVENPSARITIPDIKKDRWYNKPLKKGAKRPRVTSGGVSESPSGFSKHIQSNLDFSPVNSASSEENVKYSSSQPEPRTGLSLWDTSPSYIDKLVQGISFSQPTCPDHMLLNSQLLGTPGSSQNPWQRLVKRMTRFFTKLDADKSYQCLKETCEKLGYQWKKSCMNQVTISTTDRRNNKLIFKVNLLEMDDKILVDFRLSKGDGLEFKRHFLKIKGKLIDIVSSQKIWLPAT", "test": "Kinase selectivity panel", "type": "biochemical", "settings": "in the presence of 10 μM compound"}, "[1]": {"system": "poly(ADP-ribose)polymerase (PARP) cleavage fragment", "test": "PARP cleavage by western blot (induction of apoptosis)", "type": "cell-based, human", "settings": "K562 cells; FIG. 4 legend: MCF7 cells, 72 h", "method": "For direct immunoblotting, total cellular protein lysates were prepared by harvesting treated cells in Laemmli sample buffer. […] The probing with anti-PARP monoclonal antibody (clone C-2-10) diluted 1:1000 lasted for 2 h at 22° C. After washing three times in PBS-T, the membrane was incubated with a 1:1000 dilution of peroxidase conjugated rabbit antimouse immunoglobulin. After another three washes in PBS-T, peroxidase activity was detected by ECL chemiluminiscence reagents (Amersham) according to the manufacturer's instructions. After a longer incubation period (48-72 h) the cells started to die, with the some morphological features typical for apoptosis. […] The induction of apoptosis was therefore verified by the detection of a poly(ADP-ribose)polymerase (PARP) cleavage fragment. PARP is specifically cleaved as a result of activation of upstream proapoptotic caspases into 89 kDa and 27 kDa peptides."}, "CDK7/cyclin H": {"target": "CDK7/cyclin H (Homo sapiens, UniProt P50613)", "sequence (P50613 whole entry)": "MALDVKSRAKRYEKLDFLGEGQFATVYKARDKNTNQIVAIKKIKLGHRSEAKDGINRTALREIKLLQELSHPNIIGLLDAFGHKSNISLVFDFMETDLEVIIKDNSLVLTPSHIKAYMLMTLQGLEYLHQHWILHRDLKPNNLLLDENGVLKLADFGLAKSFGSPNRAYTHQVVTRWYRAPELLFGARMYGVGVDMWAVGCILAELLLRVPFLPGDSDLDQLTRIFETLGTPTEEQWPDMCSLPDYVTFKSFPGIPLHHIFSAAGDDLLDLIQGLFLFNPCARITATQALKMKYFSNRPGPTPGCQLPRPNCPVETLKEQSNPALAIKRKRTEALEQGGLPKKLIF", "sequence (P51946 whole entry partner)": "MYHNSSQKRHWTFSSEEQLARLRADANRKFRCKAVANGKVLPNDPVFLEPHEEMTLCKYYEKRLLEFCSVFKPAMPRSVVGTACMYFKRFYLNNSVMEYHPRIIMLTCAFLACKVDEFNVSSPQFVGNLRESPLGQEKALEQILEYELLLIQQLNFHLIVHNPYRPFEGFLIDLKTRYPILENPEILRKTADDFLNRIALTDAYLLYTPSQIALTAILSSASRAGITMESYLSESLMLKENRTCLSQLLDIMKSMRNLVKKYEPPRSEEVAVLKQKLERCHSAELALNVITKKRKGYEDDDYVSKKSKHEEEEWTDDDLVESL", "test": "Kinase selectivity panel", "type": "biochemical", "settings": "in the presence of 10 μM compound"}, "K562 cell line": {"system": "K562 cell line", "test": "Cell cycle analysis by flow cytometry", "type": "cell-based, human", "method": "Taxol (1 μM) treated and control cells were harvested and analyzed simultaneously.\nThe antiproliferative activity of 4-arylazo-3,5-diaminopyrazoles was subsequently verified by flow cytometry with subconfluent and asynchronously growing K562 cell line. […] The cell cycle block in G2/M was not dominant.\nAfter a longer incubation period (48-72 h) the cells started to die, with the some morphological features typical for apoptosis. […] The induction of apoptosis was therefore verified by the detection of a poly(ADP-ribose)polymerase (PARP) cleavage fragment. PARP is specifically cleaved as a result of activation of upstream proapoptotic caspases into 89 kDa and 27 kDa peptides."}, "SAPK2α": {"target": "SAPK2α (Homo sapiens, UniProt Q16539)", "sequence (Q16539 whole entry)": "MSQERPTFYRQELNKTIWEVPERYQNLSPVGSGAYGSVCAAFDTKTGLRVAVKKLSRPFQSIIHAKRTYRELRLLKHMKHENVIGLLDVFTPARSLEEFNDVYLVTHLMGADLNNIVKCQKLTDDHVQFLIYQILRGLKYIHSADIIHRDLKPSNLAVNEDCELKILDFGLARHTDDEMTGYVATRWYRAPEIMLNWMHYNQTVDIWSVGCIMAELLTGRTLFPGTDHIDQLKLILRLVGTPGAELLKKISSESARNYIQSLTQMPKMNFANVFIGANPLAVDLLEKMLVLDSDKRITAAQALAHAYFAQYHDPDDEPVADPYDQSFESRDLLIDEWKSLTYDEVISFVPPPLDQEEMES", "test": "Kinase selectivity panel", "type": "biochemical", "settings": "in the presence of 10 μM compound"}, "PKA": {"target": "PKA (Homo sapiens, UniProt P17612)", "settings": "in the presence of 10 μM compound"}, "PKBα": {"target": "PKBα (Homo sapiens, UniProt P31749)", "sequence (P31749 whole entry)": "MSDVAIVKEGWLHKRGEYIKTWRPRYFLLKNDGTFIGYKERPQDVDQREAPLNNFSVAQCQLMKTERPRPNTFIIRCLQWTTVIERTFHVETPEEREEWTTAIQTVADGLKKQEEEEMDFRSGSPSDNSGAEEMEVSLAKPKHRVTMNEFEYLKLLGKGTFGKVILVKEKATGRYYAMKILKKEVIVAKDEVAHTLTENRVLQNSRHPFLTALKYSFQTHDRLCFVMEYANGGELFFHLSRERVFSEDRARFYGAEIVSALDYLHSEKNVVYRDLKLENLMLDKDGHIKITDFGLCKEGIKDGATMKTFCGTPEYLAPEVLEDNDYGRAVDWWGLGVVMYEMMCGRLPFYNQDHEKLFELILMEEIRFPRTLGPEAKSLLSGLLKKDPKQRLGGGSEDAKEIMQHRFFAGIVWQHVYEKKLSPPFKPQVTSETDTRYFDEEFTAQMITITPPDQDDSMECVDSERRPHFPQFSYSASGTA", "test": "Kinase selectivity panel", "type": "biochemical", "settings": "in the presence of 10 μM compound"}, "MAPK1": {"system": "MAPK1", "test": "Kinase selectivity panel", "type": "biochemical, human", "settings": "in the presence of 10 μM compound"}, "CDK2/cyclin E": {"target": "T1, CDK2/cyclin E (Homo sapiens, UniProt P24941)", "T1 construct": "made in house; host or cells: Sf9 insect cells (baculovirus co-infection)", "test": "CDK2/cyclin E kinase inhibition assay (histone H1, [γ-33P]ATP)", "type": "biochemical", "method": "(§1) CDK1/cyclin B and CDK2/cyclin E kinases were produced in Sf9 insect cells coinfected with appropriate baculoviral constructs. The cells were harvested 70 h post infection, incubated in lysis buffer (50 mM Tris pH 7.4, 150 mM NaCl, 5 mM EDTA, 20 mM NaF, 1% Tween 20, 1 mM DTT, 0.1 mM PMSF, 0.5 μg/ml leupeptine, 1 μg/ml aprotonine) for 30 min on ice and the soluble fraction was recovered by centrifugation at 20.000 g for 10 min. The enzymes were purified on NiNTA column (Qiagen), stored at 4° C. and used within a week. To carry out the enzyme inhibition assays under linear conditions, the final point test system for kinase activity measurement was used. Kinase was added to reaction mixture in such a way as to obtain linear activity with respect to the concentration of enzyme and with respect to time. For determination of kinase inhibition the reaction mixture contained 1 mg/ml histone H1 (type III-S, Sigma) in the presence of 15 μM ATP, 0.05 μCi [γ-^33P]ATP and the tested compound in a final volume of 10 μl; all in reaction buffer (50 mM HEPES, 10 mM MgCl2, 5 mM EGTA, 10 mM 2-glycerolphosphate, 1 mM NaF, 1 mM DTT, pH 7.4). After 20 min incubation, the reactions were stopped by the addition of 5 μl of a 3% H3PO4, aliquots were spotted on P-81 phosphocellulose (Whatman, USA) that was subsequently washed 3× with 5% H3PO4 and finally air dried. The measurements of kinase inhibition employed digital image analyzer BAS-1800 (Fujifilm, Japan). Kinase activity was usually expressed as a percentage of maximum activity. […] For the purpose of kinetic analysis, the activity was expressed as arbitrary units (AU) of digital image analyzer signal."}, "CDK1/cyclin B": {"target": "T2, CDK1/cyclin B (Homo sapiens, UniProt P06493)", "T2 construct": "made in house; host or cells: Sf9 insect cells (baculovirus co-infection)", "T2 sequence (P06493 whole entry)": "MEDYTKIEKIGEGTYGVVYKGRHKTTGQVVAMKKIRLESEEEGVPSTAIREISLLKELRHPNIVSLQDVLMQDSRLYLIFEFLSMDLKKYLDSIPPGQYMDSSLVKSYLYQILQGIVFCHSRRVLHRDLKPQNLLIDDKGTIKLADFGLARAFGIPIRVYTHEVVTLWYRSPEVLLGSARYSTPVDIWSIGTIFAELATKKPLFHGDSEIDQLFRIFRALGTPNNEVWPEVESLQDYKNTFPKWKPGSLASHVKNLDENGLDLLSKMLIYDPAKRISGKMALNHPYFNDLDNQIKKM", "T2 sequence (P14635 whole entry partner)": "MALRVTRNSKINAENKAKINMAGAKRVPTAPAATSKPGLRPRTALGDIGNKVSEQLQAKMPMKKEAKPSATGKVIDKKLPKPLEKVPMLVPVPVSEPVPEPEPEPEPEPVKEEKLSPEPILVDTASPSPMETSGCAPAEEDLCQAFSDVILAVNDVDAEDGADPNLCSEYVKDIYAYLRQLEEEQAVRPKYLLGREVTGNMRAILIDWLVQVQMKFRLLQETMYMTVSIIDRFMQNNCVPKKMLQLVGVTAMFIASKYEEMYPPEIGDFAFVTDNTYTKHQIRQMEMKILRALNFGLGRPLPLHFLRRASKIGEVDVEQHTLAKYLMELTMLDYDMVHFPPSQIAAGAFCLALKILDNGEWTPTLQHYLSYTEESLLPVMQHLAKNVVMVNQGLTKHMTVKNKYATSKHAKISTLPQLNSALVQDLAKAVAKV", "test": "CDK1/cyclin B kinase inhibition assay (histone H1, [γ-33P]ATP)", "type": "biochemical", "method": "as §1"}, "[2]": {"test": "In vitro cytotoxicity, Calcein AM, 72 h", "type": "cell-based, human", "settings": "human, at 100 μM", "method": "Tested drugs were added to the cell cultures in six different concentration and kept at 37° C. and 5% CO2 for three days.\nThe cells, cultured in DMEM (supplemented with 10% fetal calf serum, 4 mM glutamine, 100 IU/ml penicillin, 100 μg/ml streptomycin) in a humidified CO2 incubator at 37° C., were redistributed into 96-well microtitre plates (10.000 cells per well). After 12 h preincubation, tested compounds in six-fold dilutions were added. Treatment of cells with the tested compounds (in the 1-100 μM range) lasted for 72 h."}, "GSK3β": {"target": "GSK3β (Homo sapiens, UniProt P49841)", "test": "Kinase selectivity panel", "type": "biochemical", "settings": "in the presence of 10 μM compound"}, "[3]": {"settings": "in the presence of 10 μM compound"}, "[4]": {"settings": "averaged from triplicates, 15 μM ATP"}}, "note": "Like-named read-outs stand apart in the source and are kept apart here.", "data": [{"smiles": "Nc1n[nH]c(N)c1N=Nc1ccc(O)cc1", "note": "[Compound 12b, 3,5-diamino-4-(4-hydroxy)phenylazo-pyrazole]", "values": [{"measurement": "IC50", "setting": "p70S6K", "result": "~10", "unit": "µM"}, {"measurement": "% of kinase activity", "setting": "p70S6K; [3]", "result": 51, "unit": "%"}, {"measurement": "% of kinase activity", "setting": "CK2", "result": 65, "unit": "%"}, {"measurement": "% of kinase activity", "setting": "c-Abl", "result": 84, "unit": "%"}, {"measurement": "% of kinase activity", "setting": "CHK1", "result": 89, "unit": "%"}, {"measurement": "PARP cleavage fragment (western blot)", "setting": "[1]", "result": "revealed a 89 kDa peptide"}, {"measurement": "% of kinase activity", "setting": "CDK7/cyclin H", "result": 71, "unit": "%"}, {"measurement": "cell death by western blotting and flow cytometry", "setting": "K562 cell line; 72 h treatment", "result": "significant cell death"}, {"measurement": "cell cycle distribution", "setting": "K562 cell line; K562, 50 μM, after 12 h incubation", "result": "accumulation of cell population in G1"}, {"measurement": "sub-G1 peak / fragmented DNA", "setting": "K562 cell line; K562, longer incubation period (48-72 h)", "result": "sub-G1 peak of cell fragments, containing fragmented DNA"}, {"measurement": "% of kinase activity", "setting": "SAPK2α", "result": 82, "unit": "%"}, {"measurement": "% of kinase activity", "setting": "PKA", "result": 67, "unit": "%"}, {"measurement": "% of kinase activity", "setting": "PKBα", "result": 105, "unit": "%"}, {"measurement": "% of kinase activity", "setting": "MAPK1", "result": 99, "unit": "%"}, {"measurement": "IC50", "setting": "CDK2/cyclin E; [4]", "result": 3.5, "unit": "µM"}, {"measurement": "% of kinase activity", "setting": "CDK2/cyclin E; [3]", "result": 31, "unit": "%"}, {"measurement": "IC50", "setting": "CDK1/cyclin B; [4]", "result": 2.1, "unit": "µM"}, {"measurement": "% of kinase activity", "setting": "CDK1/cyclin B; [3]", "result": 19, "unit": "%"}, {"measurement": "viability at 72 h, 100 µM", "setting": "[2]; G 361 cells (human malignant melanoma), 72 h, read-out: % of viable cells G361", "result": 8.3, "unit": "%"}, {"measurement": "viability at 72 h, 100 µM", "setting": "[2]; HOS cells (human osteogenic sarcoma), read-out: % of viable cells HOS", "result": 22, "unit": "%"}, {"measurement": "viability at 72 h, 100 µM", "setting": "[2]; K562 cells (human chronic myeloblastic leukemia), 72 h, read-out: % of viable cells K562", "result": 23, "unit": "%"}, {"measurement": "viability at 72 h, 100 µM", "setting": "[2]; MCF7 cells (human breast adenocarcinoma), 72 h, read-out: % of viable cells MCF7", "result": 20, "unit": "%"}, {"measurement": "% of kinase activity", "setting": "GSK3β", "result": 81, "unit": "%"}]}]}
